Usually GI50 stands for the concentration that inhibits growth by half.

What all share (assay): DTP human tumour cell line panel, 48 h
For assay [1], the system named is EKVX.
Assay [2] has as its system UACC-62.
Assay [3] relates to SNB-75.
The subject of assay [4] is Hs-578T.
The subject of assay [5] is NCI-H226.
Assay [6] relates to K562.
The subject of assay [7] is M14.
For assay [8], the system named is HCT-15.
Assay [9] concerns HOP-92.
Assay [10] deals with MDA-MB-231.
Assay [11] has as its system 786-0.
In assay [12] the test system is NCI-H522.
Assay [13] deals with HOP-62.
The subject of assay [14] is HCT-116.
In assay [15] the test system is SF-268.
In assay [16] the test system is RXF 393.
Assay [17] has as its system MDA-N.
In assay [18] the test system is NCI-H460.
Assay [19] has as its system UO-31.
In assay [20] the test system is OVCAR-4.

Each structure is given as a SMILES string.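 96-well plates; 48 h exposure; 5 concentrations. Endpoints by linear interpolation between flanking doses. Not reached: highest tested concentration assigned. At the GI50, growth is halved.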 Activity calls are given as the source filed them. No stated cut-off is given here; in the data, active = GI50 up to about 1.1 µM and inactive = higher. A value given as a limit tells only on which side of the number the result lay.

On to `Oc1ccccc1/C=N/c1nc2cc3sc(/N=C/c4ccccc4O)nc3cc2s1`, for which the GI50 is 51.4 µM (inactive) in assay [1]; > 100 µM (inactive) in [2]; > 78 µM (inactive) in assay [3]; 21.5 µM (inactive) in assay [4]; 26.4 µM (inactive) in assay [5]; 67.3 µM (inactive) in assay [6]. In addition, the GI50 in assay [7] is 97.1 µM (inactive); in [8], 19.2 µM; in [9] it was > 100 µM (inactive); in [10], > 100 µM (inactive); in [11] it was > 81.1 µM (inactive); in assay [12], 9.77 µM (inactive). Further, the GI50 in assay [13] is > 80.4 µM (inactive); in [14], 38.9 µM (inactive); in [15], 50.9 µM (inactive); in [16], > 32.7 µM (inactive); in assay [17], > 100 µM (inactive); in assay [18], 4.61 µM (inactive). Also, the GI50 is > 35.9 µM (inactive) in assay [19] and 69.7 µM (inactive) in assay [20].

For the molecule `CN1CCN(c2ccc([N+](=O)[O-])c3no[n+]([O-])c23)CC1`, the GI50 is 1.19 µM (inactive) in [1]; 0.769 µM (active) in assay [2]; 0.0103 µM (active) in assay [3]; 0.571 µM (active) in assay [4]; 0.604 µM (active) in [5]; 0.0881 µM (active) in [6]. For the same molecule, the GI50 is 0.153 µM (active) in assay [7]; 0.489 µM in assay [8]; 0.526 µM (active) in assay [9]; 1.34 µM (inactive) in assay [10]; 0.0452 µM (active) in [11]; 0.0295 µM (active) in [12]. Besides, the GI50 was 0.0607 µM (active) in [13]; 0.12 µM (active) in assay [14]; 0.0375 µM (active) in [15]; 0.122 µM (active) in assay [16]; 1.36 µM (inactive) in assay [17]; 0.0334 µM (active) in assay [18]. Besides, the concentration for 50% growth inhibition (GI50) is 0.239 µM (active) in assay [19] and 0.689 µM (active) in [20].

As for `CC(=O)OC(C)C1C2=C(C(=O)CC1(C)O)C(=O)c1c(ccc(-c3ccc4c(c3O)C(=O)C3=C(C4=O)C(C(C)OC(C)=O)C(C)(O)CC3=O)c1O)C2=O` (stereo not drawn), the GI50 was 4.36 µM (inactive) in assay [1]; 1.69 µM (inactive) in [2]; 2.49 µM (inactive) in assay [3]; 2.11 µM (inactive) in assay [4]; 9.33 µM (inactive) in assay [5]; 0.701 µM (active) in assay [6]. Moreover, the GI50 in [7] was 2.11 µM (inactive); in assay [8], 2.58 µM; in assay [9], 1.57 µM (inactive); in [10], 2.42 µM (inactive); in [11], 1.83 µM (inactive); in assay [12], 1.56 µM (inactive). The GI50 in assay [13] was 18.5 µM (inactive); in [14], 0.521 µM (active); in [15], 2.95 µM (inactive); in [16], 1.74 µM (inactive); in [17], 3.15 µM (inactive); in assay [18] it was 6.58 µM (inactive). The GI50 in assay [19] was 3.35 µM (inactive); in assay [20] it was 2.24 µM (inactive).

`COc1ccc(C2c3cc4c(cc3OC(N3CCOCC3)C2C)OCO4)c(OC)c1` (stereo not drawn): the GI50 in assay [1] was 13.9 µM (inactive); in [2], 5.56 µM (inactive); in assay [3], 3.95 µM (inactive); in assay [4], 1.97 µM (inactive); in assay [5], 3.72 µM (inactive); in assay [6], 3.02 µM (inactive). The GI50 was 3.96 µM (inactive) in assay [7]; 4.34 µM in assay [8]; 3.32 µM (inactive) in assay [9]; 8.69 µM (inactive) in assay [10]; 4.63 µM (inactive) in assay [11]; 2.68 µM (inactive) in assay [12]. The GI50 in assay [13] is 5.06 µM (inactive); in [14], 3.77 µM (inactive); in assay [15] it was 6.95 µM (inactive); in assay [16], 2.94 µM (inactive); in [17], 1.64 µM (inactive); in assay [18] it was 5.12 µM (inactive). Moreover, the GI50 was 9.06 µM (inactive) in [19] and 10 µM (inactive) in [20].

For `CC(NC(=O)c1ccccc1)(C(=O)O)C(=O)O`, the GI50 in assay [1], in assay [2], in assay [3], in [4], in assay [5] and in [6] was > 100 µM (inactive) each time. Also, the GI50 is > 100 µM (inactive) in assay [7]; over 100 µM in [8]; 83 µM (inactive) in [9]; > 100 µM (inactive) in [10]; > 100 µM (inactive) in [11]; > 100 µM (inactive) in assay [12]. The GI50 in assay [13], in assay [14], in assay [15], in [16], in assay [17] and in assay [18] was > 100 µM (inactive) in each case. Moreover, the GI50 in assay [19] and in [20] was > 100 µM (inactive) throughout.

`O=C(/C=C/c1ccc(O)c(O)c1)NC(COC(=O)/C=C/c1ccc(O)c(O)c1)C(=O)O` (stereo not drawn): the GI50 in assay [1], in [2], in [3], in [4], in assay [5] and in assay [6] was > 100 µM (inactive) in each case. The GI50 in assay [7] is > 100 µM (inactive); in assay [8] it was over 100 µM; in [9], > 100 µM (inactive); in assay [10], > 100 µM (inactive); in [11] it was > 100 µM (inactive); in assay [12] it was > 100 µM (inactive). Further, the GI50 in [13], in assay [14], in assay [15], in [16], in [17] and in [18] was > 100 µM (inactive) throughout. For the same molecule, the GI50 in assay [19] and in assay [20] was > 100 µM (inactive) throughout.

In the case of `O=c1c2ccccc2nc(-c2ccccc2)n1O`, the GI50 was > 100 µM (inactive) in assay [1]; > 100 µM (inactive) in [2]; 87.3 µM (inactive) in assay [3]; > 100 µM (inactive) in assay [4]; 73.5 µM (inactive) in assay [5]; 30.9 µM (inactive) in [6]. Further, the GI50 in [7] is 95.7 µM (inactive); in [8] it was 41.1 µM; in assay [9], 22.9 µM (inactive); in [10] it was > 100 µM (inactive); in assay [11] it was > 100 µM (inactive); in assay [12] it was > 100 µM (inactive). Besides, the GI50 in assay [13] was 5.28 µM (inactive); in assay [14], 55.8 µM (inactive); in assay [15], > 100 µM (inactive); in [16], 31.3 µM (inactive); in [17] it was > 100 µM (inactive); in assay [18], 64.1 µM (inactive). Further, the GI50 in [19] is 8.53 µM (inactive); in assay [20] it was 55.5 µM (inactive).

Regarding `C=C(Cl)C(Cl)(CBr)CCCC(C)(C)Cl` (stereo not drawn), the GI50 is 18.5 µM (inactive) in assay [1]; 17.4 µM (inactive) in assay [2]; 4.48 µM (inactive) in [3]; 2.98 µM (inactive) in assay [4]; > 72.9 µM (inactive) in assay [5]; > 42 µM (inactive) in assay [6]. Moreover, the GI50 was > 75.2 µM (inactive) in [7]; 26.3 µM in assay [8]; 2.41 µM (inactive) in assay [9]; > 38.6 µM (inactive) in assay [10]; 5.04 µM (inactive) in assay [11]; 9.25 µM (inactive) in assay [12]. Moreover, the GI50 is 4.26 µM (inactive) in assay [13]; 14.1 µM (inactive) in assay [14]; 12.7 µM (inactive) in assay [15]; 17.7 µM (inactive) in assay [16]; 28.1 µM (inactive) in [17]; 5.71 µM (inactive) in [18]. In addition, the GI50 in assay [19] was 14.5 µM (inactive); in assay [20] it was 2.55 µM (inactive).

In the case of `CCOC(=O)c1sc(N/N=C2\NC(=O)/C(=C/c3ccc([N+](=O)[O-])cc3)S2)nc1C`, the GI50 in assay [1] is 15.7 µM (inactive); in assay [2] it was 22.2 µM (inactive); in assay [3], 25.8 µM (inactive); in assay [4], 33.9 µM (inactive); in [5], 18.7 µM (inactive); in [7], 28.8 µM (inactive). Moreover, the 50% growth inhibitory concentration (GI50) was 19.7 µM in [8]; 16.9 µM (inactive) in assay [9]; 19.5 µM (inactive) in [10]; 16.7 µM (inactive) in [11]; 17.7 µM (inactive) in assay [12]; 17.2 µM (inactive) in assay [13]. Besides, the GI50 was 16.8 µM (inactive) in assay [14]; 27.5 µM (inactive) in assay [15]; 26.8 µM (inactive) in assay [16]; 25.9 µM (inactive) in [17]; 21.5 µM (inactive) in assay [18]; 16.2 µM (inactive) in [19]. Further, in [20], the GI50 is 26.1 µM (inactive).

With `O=C1/C(=N/O)Cc2c(Br)ccc(Br)c21`, the GI50 in [1] is 28.2 µM (inactive); in assay [3], > 100 µM (inactive); in assay [4], 37.8 µM (inactive); in assay [5], 68.1 µM (inactive); in assay [6], 26 µM (inactive); in assay [7], > 100 µM (inactive). In addition, the 50% growth inhibitory concentration (GI50) in assay [8] was 33.7 µM; in assay [9] it was > 100 µM (inactive); in [10], 46.9 µM (inactive); in assay [11], 74 µM (inactive); in assay [12], 27.5 µM (inactive); in [13], > 100 µM (inactive). The GI50 in assay [14] is 55.1 µM (inactive); in assay [15], 35.2 µM (inactive); in assay [16], 99.3 µM (inactive); in assay [17] it was 48.3 µM (inactive); in assay [18] it was 37.6 µM (inactive); in [19], > 100 µM (inactive). Further, the GI50 in assay [20] was 33.3 µM (inactive).

The record behind these values is ChEMBL document CHEMBL1201862, “PubChem BioAssay data set” (2004).
